{"source": "paper PMC2192098", "about": "(The Journal of Experimental Medicine, 1995)", "key": {"HepG2 cells": {"system": "HepG2 cells", "settings": "cell lines such as HepG2; cited from earlier work"}, "[1]": {"system": "HepG2 cells; alpha 1-antichymotrypsin synthesis", "experiment": "alpha1-antichymotrypsin", "format": "cell-based, human", "settings": "HepG2, 6 h, 37°C"}, "[2]": {"system": "HepG2 cells; alpha 1-antichymotrypsin synthesis", "settings": "lower doses of IL-6; cited from earlier work"}, "[3]": {"system": "HepG2 cells; serum amyloid A or C-reactive protein synthesis", "experiment": "Serum amyloid A and C-reactive protein synthesis in HepG2 cells", "format": "cell-based, human", "settings": "data not shown"}, "[4]": {"system": "HepG2 cells; complement Bf synthesis", "experiment": "Complement Bf synthesis in HepG2 cells", "format": "cell-based, human", "settings": "HepG2, 6 h, 37°C; 1 and 10 nM; Fig. 7"}, "[5]": {"system": "HepG2 cells; alpha1-AT synthesis", "experiment": "alpha1-antitrypsin", "format": "cell-based, human", "settings": "HepG2, 6 h, 37°C; 1 and 10 nM; Fig. 7"}, "[6]": {"system": "HepG2 cells; acute phase protein synthesis", "experiment": "Synthesis of acute phase proteins in HepG2 cells", "format": "cell-based, human", "settings": "for effect on C3 and albumin synthesis at higher concentrations: higher concentrations of chemotactic peptides, data not shown"}, "[7]": {"system": "HepG2 cells; albumin synthesis", "experiment": "Albumin synthesis in HepG2 cells", "format": "cell-based, human", "settings": "for time at which decrease in albumin synthesis becomes evident: C5a or FMLP 10 nM, Fig. 6"}, "neutrophils": {"system": "neutrophils", "settings": "cited from earlier work"}, "[8]": {"system": "HepG2 cells; complement C3 synthesis", "experiment": "C3 synthesis in HepG2 cells", "format": "cell-based, human", "settings": "for time at which increase in C3 synthesis becomes evident: C5a or FMLP 10 nM, HepG2, 37°C, Fig. 6; for effect on C3 synthesis: HepG2, 6 h, 37°C, 1 and 10 nM, Fig. 7"}, "[9]": {"system": "HepG2 cells; fibrinogen and C4 synthesis", "experiment": "Fibrinogen and C4 synthesis in HepG2 cells", "format": "cell-based, human", "settings": "data not shown"}, "[10]": {"system": "HepG2 cells; transferrin synthesis", "experiment": "Transferrin synthesis in HepG2 cells", "format": "cell-based, human", "settings": "HepG2, 6 h, 37°C; 1 and 10 nM; Fig. 7"}, "[11]": {"system": "HepG2 cells; C5 synthesis", "experiment": "C5 synthesis in HepG2 cells", "format": "cell-based, human", "settings": "HepG2, 6 h, 37°C; 1 and 10 nM; Fig. 7"}, "FMLPR in HepG2 cells": {"biological_target": "T1, FMLPR in HepG2 cells (Homo sapiens, UniProt P21462)", "T1 sequence (P21462 1-350)": "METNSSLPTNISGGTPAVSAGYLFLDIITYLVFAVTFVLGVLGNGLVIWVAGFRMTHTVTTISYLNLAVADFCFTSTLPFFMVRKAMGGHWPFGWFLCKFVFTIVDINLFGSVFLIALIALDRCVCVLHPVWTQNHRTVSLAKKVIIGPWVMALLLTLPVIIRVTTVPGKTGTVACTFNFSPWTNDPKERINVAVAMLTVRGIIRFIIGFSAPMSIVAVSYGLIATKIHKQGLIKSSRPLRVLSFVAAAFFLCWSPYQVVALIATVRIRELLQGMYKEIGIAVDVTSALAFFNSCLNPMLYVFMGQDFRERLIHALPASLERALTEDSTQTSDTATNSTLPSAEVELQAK", "experiment": "Binding of radioiodinated FMLP analogue to HepG2 cells"}, "[12]": {"system": "C5a and FMLP receptor-activated signal transduction pathways", "settings": "background statement, no reference given; cited from earlier work"}, "[13]": {"system": "vascular tissue, smooth muscle, mast cells", "settings": "cited from earlier work"}, "human endothelial cells": {"system": "human endothelial cells", "settings": "cited from earlier work"}, "C5aR in HepG2 cells": {"system": "C5aR in HepG2 cells", "settings": "cited from earlier work"}, "[14]": {"settings": "HepG2, 37°C, 10 h, serum-free, C5a or FMLP 1 and 10 nM, Fig. 5"}, "[15]": {"settings": "HepG2, 6 h, 37°C, 1 and 10 nM, Fig. 7"}, "[16]": {"settings": "HepG2, 10 h, IL-1β 10 ng/ml + IL-6 10 ng/ml as positive control, Fig. 5"}}}
{"molecule": "IL-6: prototype acute phase cytokine IL-6", "values": [{"measurement": "changes in expression of acute phase genes", "setting": "HepG2 cells", "result": "changes in expression of at least several if not many acute phase genes"}, {"measurement": "concentration of maximal effect on alpha1-ACT synthesis", "setting": "[1]; Fig. 9 right", "result": "0.2 /xg/ml"}, {"measurement": "effect on alpha1-ACT synthesis", "setting": "[1]; IL-6, several concentrations from 0.2 μg/ml, Fig. 9 right", "result": "increase"}, {"measurement": "effect on alpha1-ACT synthesis at lower doses", "setting": "[2]", "result": "con- centration dependent at lower doses"}]}
{"molecule": "IL-I~: cytokine (interleukin-1 beta; scan error)", "values": [{"measurement": "changes in expression of acute phase genes", "setting": "HepG2 cells", "result": "changes in expression of at least several if not many acute phase genes"}]}
{"molecule": "formyl-methionyl-leucyl-phenylalanine [FMLP, reference compound]", "values": [{"measurement": "induction of serum amyloid A or C-reactive protein synthesis", "setting": "[3]", "result": "no evidence for induc- tion"}, {"measurement": "effect on complement Bf synthesis", "setting": "[4]", "result": "increases"}, {"measurement": "effect on alpha1-AT synthesis", "setting": "[5]", "result": "no effect"}, {"measurement": "lowest concentration with evident effect on synthesis of acute phase proteins", "setting": "[6]; abstract", "result": 1, "unit": "nM"}, {"measurement": "effect on C3 and albumin synthesis at higher concentrations", "setting": "[6]", "result": "dissipation of the effect"}, {"measurement": "time at which decrease in albumin synthesis becomes evident", "setting": "[7]; HepG2, 37°C", "result": 6, "unit": "h"}, {"measurement": "effect on albumin synthesis", "setting": "[7]; [14]", "result": "concentration-dependent decreases in synthesis of albumin"}, {"measurement": "effect on albumin synthesis", "setting": "[7]; [15]", "result": "decreases"}, {"measurement": "concentration at which effect on albumin biosynthesis was first evident", "setting": "[7]; HepG2, 10 h, Fig. 5", "result": 1, "unit": "nM"}, {"measurement": "magnitude of effect on albumin synthesis vs combination of IL-1β and IL-6", "setting": "[7]; [16]", "result": "less than but comparable"}, {"measurement": "effect on neutrophil chemotaxis at supersaturating concentrations", "setting": "neutrophils", "result": "abrogated at supersaturating concentra- tions"}, {"measurement": "neutrophil program activated", "setting": "neutrophils", "result": "directed cell migration, release of active oxy- gen intermediates, and release of proteolytic and phlogistic granular contents"}, {"measurement": "alpha1-ACT synthesis at higher (supersaturating) concentrations", "setting": "[1]; FMLP above 20 nM, Fig. 9 left", "result": "returns to control levels"}, {"measurement": "effect on alpha1-ACT synthesis", "setting": "[1]; 1 and 10 nM, Fig. 7", "result": "increases"}, {"measurement": "time at which increase in C3 synthesis becomes evident", "setting": "[8]", "result": 6, "unit": "h"}, {"measurement": "effect on C3 synthesis", "setting": "[8]", "result": "increases"}, {"measurement": "magnitude of effect on C3 synthesis vs combined effect of IL-1β and IL-6", "setting": "[8]; [16]", "result": "less than but comparable in magnitude"}, {"measurement": "effect on fibrinogen and C4 synthesis", "setting": "[9]", "result": "minimally and inconsistently increased"}, {"measurement": "effect on transferrin synthesis", "setting": "[10]", "result": "decreases"}, {"measurement": "effect on C5 synthesis", "setting": "[11]", "result": "no effect"}]}
{"molecule": "formylNLe-Leu-Phe-NLe-Tyr-Lys [radioiodinated FMLP analogue]", "values": [{"measurement": "binding of radioiodinated FMLP analogue to HepG2 cells", "setting": "FMLPR in HepG2 cells; HepG2, 2 h at 4°C, Fig. 3A", "result": "specific and saturable binding"}, {"measurement": "plasma membrane receptors per cell (R)", "setting": "FMLPR in HepG2 cells; Scatchard plot, HepG2, 2 h at 4°C", "result": "~6,000 plasma membrane receptors per cell"}, {"measurement": "Kd", "setting": "FMLPR in HepG2 cells; Scatchard plot, HepG2 monolayers, 2 h at 4°C, DMEM, 10 mM Hepes, pH 7.2, 1 mg/ml BSA, 0.05% Tween 80, nonspecific: 200-fold (Fig. 3: 250-fold) molar excess unlabeled FMLP, gamma counting", "result": "~2.47", "unit": "nM"}]}
{"molecule": "leukemia inhibitory factor: cytokine", "values": [{"measurement": "changes in expression of acute phase genes", "setting": "HepG2 cells", "result": "changes in expression of at least several if not many acute phase genes"}]}
{"molecule": "pertussis toxin", "values": [{"measurement": "inhibition of C5a/FMLP receptor signal transduction", "setting": "[12]", "result": "is inhibited by pertussis toxin"}]}
{"molecule": "C5a: 11,200-D cationic glycopeptide from the first 74 residues of the C5 alpha chain; recombinant human C5a (Sigma) used (protein, UniProt P01031 678-751, looked up, C5a anaphylatoxin) C5a anaphylatoxin: TLQKKIEEIAAKYKHSVVKKCCYDGACVNNDETCEQRAARISLGPRCIKAFTECCVVASQLRANISHKDMQLGR", "values": [{"measurement": "induction of serum amyloid A or C-reactive protein synthesis", "setting": "[3]", "result": "no evidence for induc- tion"}, {"measurement": "effect on complement Bf synthesis", "setting": "[4]", "result": "increases"}, {"measurement": "effect on alpha1-AT synthesis", "setting": "[5]", "result": "no effect"}, {"measurement": "histamine release from mast cells", "setting": "[13]", "result": "releaseofhistamine from mast cells"}, {"measurement": "smooth muscle contraction", "setting": "[13]", "result": "smooth muscle contraction"}, {"measurement": "vascular permeability", "setting": "[13]", "result": "increasedvascularpermeability"}, {"measurement": "vasodilatation", "setting": "[13]", "result": "vasodilatation"}, {"measurement": "effect on C3 and albumin synthesis at higher concentrations", "setting": "[6]", "result": "dissipation of the effect"}, {"measurement": "time at which decrease in albumin synthesis becomes evident", "setting": "[7]; HepG2, 37°C", "result": 6, "unit": "h"}, {"measurement": "effect on albumin synthesis", "setting": "[7]; [14]", "result": "concentration-dependent decreases in synthesis of albumin"}, {"measurement": "effect on albumin synthesis", "setting": "[7]; [15]", "result": "decreases"}, {"measurement": "effect on neutrophil chemotaxis at supersaturating concentrations", "setting": "neutrophils", "result": "abrogated at supersaturating concentra- tions"}, {"measurement": "neutrophil activities mediated", "setting": "neutrophils", "result": "chemotactic ac- tivity, phagocytic activity, release of active oxygen inter- mediates, release of granular enzymes, and increase in adhesion/aggregationproperties in neutrophils"}, {"measurement": "effect on alpha1-ACT synthesis", "setting": "[1]; 1 and 10 nM, Fig. 7", "result": "increases"}, {"measurement": "time at which increase in C3 synthesis becomes evident", "setting": "[8]", "result": 6, "unit": "h"}, {"measurement": "effect on C3 synthesis", "setting": "[8]", "result": "increases"}, {"measurement": "effect on fibrinogen and C4 synthesis", "setting": "[9]", "result": "minimally and inconsistently increased"}, {"measurement": "effect on transferrin synthesis", "setting": "[10]", "result": "decreases"}, {"measurement": "effect on C5 synthesis", "setting": "[11]", "result": "no effect"}, {"measurement": "binding to human endothelial cells", "setting": "human endothelial cells", "result": "binds to human endothelial cells"}, {"measurement": "inhibition of binding of 125I-C5a to HepG2 cells", "setting": "C5aR in HepG2 cells", "result": "inhibit binding"}]}
{"molecule": "oncostain M: cytokine (protein, UniProt P13725 26-221, looked up) Oncostatin-M: AAIGSCSKEYRVLLGQLQKQTDLMQDTSRLLDPYIRIQGLDVPKLREHCRERPGAFPSEETLRGLGRRGFLQTLNATLGCVLHRLADLEQRLPKAQDLERSGLNIEDLEKLQMARPNILGLRNNIYCMAQLLDNSDTAEPTKAGRGASQPPTPTPASDAFQRKLEGCRFLHGYHRFMHSVGRVFSKWGESPNRSRR", "values": [{"measurement": "changes in expression of acute phase genes", "setting": "HepG2 cells", "result": "changes in expression of at least several if not many acute phase genes"}]}
{"molecule": "IL-lc~: cytokine (interleukin-1 alpha; scan error) (protein, UniProt P01583 113-271, looked up) Interleukin-1 alpha: SAPFSFLSNVKYNFMRIIKYEFILNDALNQSIIRANDQYLTAAALHNLDEAVKFDMGAYKSSKDDAKITVILRISKTQLYVTAQDEDQPVLLKEMPEIPKTITGSETNLLFFWETHGTKNYFTSVAHPNLFIATKQDYWVCLAGGPPSITDFQILENQA", "values": [{"measurement": "changes in expression of acute phase genes", "setting": "HepG2 cells", "result": "changes in expression of at least several if not many acute phase genes"}]}
{"molecule": "IL-11: cytokine (protein, UniProt P20809 22-199, looked up) Interleukin-11: PGPPPGPPRVSPDPRAELDSTVLLTRSLLADTRQLAAQLRDKFPADGDHNLDSLPTLAMSAGALGALQLPGVLTRLRADLLSYLRHVQWLRRAGGSSLKTLEPELGTLQARLDRLLRRLQLLMSRLALPQPPPDPPAPPLAPPSSAWGGIRAAHAILGGLHLTLDWAVRGLLLLKTRL", "values": [{"measurement": "changes in expression of acute phase genes", "setting": "HepG2 cells", "result": "changes in expression of at least several if not many acute phase genes"}]}
